Test results: article PMC10539501 (Nature Communications, 2023)
Starred links: 1 amine or outer side, 2 acyl side, 3 side chain; linkers in the order of their positions; H or OH if unused. Non-standard residues stand in square brackets, D forms with d. Residues, ends and D or L forms follow the SMILES beside them. X3 = CC(C)C[C@H](N[*:1])C(=S)N[C@H](CC(C)C)C(=O)[*:2]; NMeL = CN[C@@H](CC(C)C)C(=O)O

Legend:
[1] = rat, in vivo, po, 10 mg/kg
Protocol: (§1) All animals were housed individually in the animal facility at Anthem Biosciences Pvt. Ltd and were acclimatized for 3 days. All animals were fasted overnight before dosing, whereas access to water was provided ad libitum. Peptides were administered orally and via s.c. route and blood samples were collected at different time points through a jugular vein catheter.

[2] = in vitro; details: pig, simulated intestinal fluid
[3] = tested on: human liver microsomes
Protocol: (§2) A stability assessment of the peptides was done in simulated gastric (SGF) and intestinal (SIF) fluids and human liver microsomes. The degradation kinetics of the aliquoted samples at desired time points were analyzed through RP-HPLC.

[4] = molecular target: T1, pepsin (Sus scrofa, UniProt P00791); experiment: in vitro; details: simulated gastric fluid, pH 1.2
Protocol: as §2

[5] = physchem; details: pH 7.4
[6] = molecular target: T1, pepsin; details: pH 1.2
Protocol: as §2

[7] = in vitro; details: human, microsomes
Protocol: as §2

[8] = in vivo; details: male, Wistar, rat
Protocol: as §1

[9] = in vitro; details: both, human, plasma
[10] = PAMPA passive permeability; assay type: in vitro ADME; details: for Papp: Pe Avg;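 for all read-outs here: passive permeability across an artificial membrane in 96-well pre-coated PAMPA plates, which lack transporters and efflux systems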
Protocol: Encouraged by this, the passive permeability of the analogs was evaluated using an artificial membrane (PAMPA), which measures permeability of compounds in the absence of transporters and efflux systems[32].
96-well BD Corning® pre-coated PAMPA plates were used following the supplier’s protocol, details in Supplementary Information.

[11] = in vitro; details: both, human, plasma; remark: listed apart in the source
[12] = tested on: plasma proteins
[13] = HDX of amide protons by NMR in DMSO-d6:D2O (8:2); details: HDX by NMR, 20% D2O in DMSO-d6
Protocol: (§3) As hydrogen bonding and solvation of NH groups play an important role in the permeability of macrocycles, we determined the solvent accessibility of individual amide protons in 10 and 10a–10f by hydrogen-deuterium exchange (HDX) through NMR spectroscopy (Figs. 2a–c).
(§4) Spectra were recorded on a Bruker AV 500 MHz spectrometer at 25 °C.

[14] = tested on: Caco-2 cells; experiment: in vitro; assay type: in vitro ADME, human; details: Caco-2
Protocol: (§5) The Caco-2 cell (HTB-37^TM from ATCC, procured from NCCS, Pune) monolayer was washed and pre-incubated at 37 °C and 5% CO2 for 30 min with HBSS-HEPES buffer containing 1% DMSO prior to experimentation. The assay was performed 21 days post-seeding of cells. TEER values were measured before starting and after the completion of the assay. Acceptor and donor well concentrations of the peptides and controls were assessed through LC-MS/MS.

[15] = in vitro; assay type: in vitro ADME, human
Protocol: as §5

[16] = HDX of amide protons by NMR in CDCl3:CD3OD (8:2)
Protocol: as §3, §4

[17] = assay type: physicochemical
[18] = tested on: pancreatin
[19] = Retention in hydrophobic C18 column by HPLC; details: Supplementary Fig 3d, logD7.4 vs tR
[20] = assay type: physicochemical; remark: listed apart in the source
[21] = 20% CD3OD in CDCl3, % remaining after 24 hours
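Throughout, for Papp A-B avg (second block): Caco-2 monolayers used 21 days after seeding in HBSS-HEPES buffer with 1% DMSO, donor and acceptor levels quantified by LC-MS/MS, TEER checked before and after.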
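Throughout, for Papp A-B set 1 (second block): Caco-2 monolayers used 21 days after seeding in HBSS-HEPES buffer with 1% DMSO, donor and acceptor levels quantified by LC-MS/MS, TEER checked before and after.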
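Throughout, for Papp A-B set 2 (second block): Caco-2 monolayers used 21 days after seeding in HBSS-HEPES buffer with 1% DMSO, donor and acceptor levels quantified by LC-MS/MS, TEER checked before and after.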
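Throughout, for Papp B-A avg (second block): Caco-2 monolayers used 21 days after seeding in HBSS-HEPES buffer with 1% DMSO, donor and acceptor levels quantified by LC-MS/MS, TEER checked before and after.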

T1 sequence (P00791 60-385): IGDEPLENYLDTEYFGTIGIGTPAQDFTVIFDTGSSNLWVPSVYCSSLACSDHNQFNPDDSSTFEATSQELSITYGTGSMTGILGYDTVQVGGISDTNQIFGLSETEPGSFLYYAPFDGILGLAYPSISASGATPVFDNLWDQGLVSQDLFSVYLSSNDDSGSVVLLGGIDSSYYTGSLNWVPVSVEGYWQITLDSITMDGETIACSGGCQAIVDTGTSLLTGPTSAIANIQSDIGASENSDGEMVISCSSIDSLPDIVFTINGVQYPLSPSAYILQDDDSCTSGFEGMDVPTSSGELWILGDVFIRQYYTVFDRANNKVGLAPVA

CC(C)C[C@@H]1NC(=O)[C@H](Cc2ccc(O)cc2)NC(=O)[C@H]2CCCN2C(=O)[C@H](CC(C)C)NC(=O)[C@H](CC(C)C)N(C)C(=O)[C@@H](CC(C)C)NC1=O [10h] (cyclo(L[dL][NMeL]L[dP]Y))
Fold Change of AUClast p.o [1]: 29
half-life [2]: 0.933 h
remaining at 10 min [2]: 71%
remaining at 0.5 h [2]: 63%
remaining at 1 h [2]: 47%
remaining at 2 h [2]: 27%
remaining at 4 h [2]: 16%
remaining at 8 h [2]: 2.66%
remaining at 12 h [2]: 1%
Half lives [3]: 28.7
remaining at 2 min [4]: 97%
remaining at 10 min [4]: 89%
remaining at 20 min [4]: 79%
remaining at 0.5 h [4]: 67%
remaining at 1 h [4]: 57%
remaining at 2 h [4]: 26%
remaining at 4 h [4]: 16%
remaining at 8 h [4]: 8%
remaining at 12 h [4]: 3%
logD [5]: 1.46
Half lives (SGF) Avg [6]: 65.5 min
Half lives (SGF) set1 [6]: 52 min
microsomal CLint [7]: 49 µL/min/mg
remaining at 2 min [7]: 99%
remaining at 10 min [7]: 94%
remaining at 20 min [7]: 65%
remaining at 0.5 h [7]: 49%
remaining at 0.75 h [7]: 27%
remaining at 1 h [7]: 13%
AUC(0-t) ([8]; iv): 212 ng·h/mL
Cmax ([8]; iv): 435 ng/mL
MRT ([8]; iv): 0.4 h
Vd ([8]; iv): 2.3 L/kg
clearance ([8]; iv): 79.5 mL/min/kg
bioavailability ([8]; po): 1.2%
AUC(0-t) ([8]; po, 10 mg/kg): 25.9 ng·h/mL
Cmax ([8]; po, 10 mg/kg): 13.1 ng/mL
MRT ([8]; po, 10 mg/kg): 1.3 h
level at 3 h ([8]; po, 10 mg/kg): 3.2 ng/mL
half-life [9]: 18 h
remaining at 2 h [9]: 89%
remaining at 4 h [9]: 77%
remaining at 8 h [9]: 68%
remaining at 16 h [9]: 56%
remaining at 24 h [9]: 30%
remaining at 48 h [9]: 13%
remaining at 72 h [9]: 3.27%
Papp [10]: 9.07 ×10⁻⁶ cm/s
fraction unbound [11]: 0.3

CC(C)C[C@@H]1NC(=O)[C@@H](CC(C)C)NC(=S)[C@H](CC(C)C)NC(=O)[C@H](Cc2ccc(O)cc2)NC(=O)[C@H]2CCCN2C(=O)[C@H](CC(C)C)NC1=O [10f] (cyclo(LL[dP]Y[X3]))
AUClast p.o [1]: 120.8 ng·h/mL
time over which the peptide is detectable in plasma [1]: ≥ 8 h
Protein binding set1 [12]: 100%
Protein binding set2 [12]: 100%
Protein binding set3 [12]: 95%
Half-life of D-Leu1 amide proton (HDX) [13]: 1 min
Half-life of Leu2 amide proton (HDX) [13]: 11.7 h
Half-life of Leu3 amide proton (HDX) [13]: 13.2 h
Half-life of Leu6 amide proton (HDX) [13]: 12 h
Half-life of Tyr5 amide proton (HDX) [13]: 18 h
Papp A-B avg (second block) [14]: 3.01 ×10⁻⁶ cm/s
Papp A-B set 1 (second block) [14]: 4.57 ×10⁻⁶ cm/s
Papp A-B set 2 (second block) [14]: 1.45 ×10⁻⁶ cm/s
Papp B-A avg (second block) [14]: 41.8 ×10⁻⁶ cm/s
Papp B-A set 1 (second block) [14]: 39.7 ×10⁻⁶ cm/s
Papp B-A set 2 (second block) [14]: 43.9 ×10⁻⁶ cm/s
Papp A→B ([15]; Caco-2, Papp A-B + Elacridar avg): 6.8 ×10⁻⁶ cm/s
Papp A→B ([15]; Caco-2, Papp A-B avg): 3.01 ×10⁻⁶ cm/s
Papp B→A ([15]; Caco-2, Papp B-A + Elacridar avg): 8.9 ×10⁻⁶ cm/s
Papp B→A ([15]; Caco-2, Papp B-A avg): 41.8 ×10⁻⁶ cm/s
half-life [2]: 2.1 h
remaining at 10 min [2]: 80.9%
remaining at 0.5 h [2]: 67.2%
remaining at 1 h [2]: 56.5%
remaining at 2 h [2]: 48.1%
remaining at 4 h [2]: 42.9%
remaining at 8 h [2]: 31.7%
remaining at 12 h [2]: 24.6%
remaining at 24 h [2]: 17.2%
Half lives [3]: 42.3
Half-life of D-Leu1 amide proton (HDX) ([16]; 20% CD3OD in CDCl3): 0.167 h
Half-life of Leu2 amide proton (HDX) ([16]; 20% CD3OD in CDCl3): 8.33 h
Half-life of Leu3 amide proton (HDX) ([16]; 20% CD3OD in CDCl3): 3.27 h
Half-life of Leu6 amide proton (HDX) ([16]; 20% CD3OD in CDCl3): > 24 h
Half-life of Tyr5 amide proton (HDX) ([16]; 20% CD3OD in CDCl3): > 24 h
% intact NH, Leu6 [16, 21]: 52%
% intact NH, Tyr5 [16, 21]: 67%
logD heptane ethylene glycol [17]: 1.08
half-life [4]: 1.3 h
remaining at 5 min [4]: 78%
remaining at 10 min [4]: 73%
remaining at 20 min [4]: 67%
remaining at 0.5 h [4]: 61%
remaining at 1 h [4]: 54%
remaining at 2 h [4]: 44%
remaining at 4 h [4]: 34%
remaining at 8 h [4]: 24%
remaining at 12 h [4]: 15%
remaining at 24 h [4]: 9%
logD [5]: 1.53
microsomal CLint [7]: 33 µL/min/mg
remaining at 5 min [7]: 78%
remaining at 10 min [7]: 71%
remaining at 20 min [7]: 62%
remaining at 0.5 h [7]: 56%
remaining at 0.75 h [7]: 48%
remaining at 1 h [7]: 38%
Half lives (SIF) Avg [18]: 128 min
Half lives (SIF) set1 [18]: 184 min
Half lives (SIF) set2 [18]: 94 min
Half lives (SIF) set3 [18]: 108 min
AUC(0-t) ([8]; iv): 390 ng·h/mL
Cmax ([8]; iv): 580 ng/mL
MRT ([8]; iv): 1.1 h
Vd ([8]; iv): 3.2 L/kg
clearance ([8]; iv): 42.2 mL/min/kg
bioavailability ([8]; po): 3.1%
AUC(0-t) ([8]; po, 10 mg/kg): 121 ng·h/mL
Cmax ([8]; po, 10 mg/kg): 61.7 ng/mL
MRT ([8]; po, 10 mg/kg): 2.1 h
level at 3 h ([8]; po, 10 mg/kg): 13.1 ng/mL
tR [19]: 14 min
half-life [9]: 18 h
remaining at 1 h [9]: 92%
remaining at 3 h [9]: 87%
remaining at 5 h [9]: 84%
remaining at 7 h [9]: 79%
remaining at 9 h [9]: 63%
remaining at 12 h [9]: 54%
remaining at 24 h [9]: 38%
remaining at 36 h [9]: 22%
remaining at 48 h [9]: 25%
remaining at 60 h [9]: 26%
remaining at 72 h [9]: 21%
% solubility [20]: 23%
Pe Avg [10]: 7.3 ×10⁻⁶ cm/s
Pe set1 [10]: 7.27 ×10⁻⁶ cm/s
Pe set2 [10]: 9.86 ×10⁻⁶ cm/s
Pe set3 [10]: 4.7 ×10⁻⁶ cm/s
Papp [10]: 7.3 ×10⁻⁶ cm/s
fraction unbound [11]: 0.02
